The record followed here is patent publication US20070249637A1, “Inhibitors Of Hepatitis C Virus Protease, And Compositions And Treatments Using The Same” (priority 2004, published 2007).

Data set [1] relates to HCV dual reporter subgenomic replicon (B6b cell line). The data set can be described thus: HCV dual reporter subgenomic replicon assay, Renilla luciferase (antiviral activity). Type of data set: cell-based. To be noted: Hepatitis C virus, 72 h; 50% reduction of Renilla luciferase expression, 3 days incubation. As for the experimental part: The compounds described herein were tested for antiviral activity utilizing a dual-reporter replicon assay as described in U.S. patent application Ser. No. 10/818,075 (the '075 application), filed Apr. 5, 2004. The disclosure of the '075 application is incorporated herein.
(§1) Cell-based antiviral activity was evaluated in the previously described HCV dual reporter subgenomic replicon system (the '075 application). With this system, the effects of a compound on both HCV replication and cell viability can be simultaneously determined by measuring the intracellular levels of two separate reporter proteins. The dicistronic selectable replicon contains the Renilla luciferase gene such that Renilla luciferase activity within stably-transfected cells serves as a marker of HCV replication. The firefly luciferase gene is stably integrated into and expressed by the Huh-7 host cells. Since firefly luciferase activity is dependent upon cellular transcription and translation, firefly luciferase activity serves as an indicator of cell viability.
(§2) The dual reporter selectable replicon cell line (B6b) was maintained in DMEM supplemented with 10% FBS, L-glutamine, non-essential amino acids, penicillin, streptomycin, and selection agents (200 ug/ml G418 and 6 ug/ml blastocidin). On the first day of the experiment, cells were trypsinized, washed, and diluted in medium lacking the selection agents. Cells were transferred to 96-well, black-walled, clear bottom plates at a density of 2×10^4 cells in 150 ul of medium per well. Cells were allowed to settle for 60 to 90 minutes while compounds were being prepared. Each compound was initially diluted to a 4× working stock (2.56% DMSO in tissue culture medium) that was then serially diluted nine times in half log increments in medium with 2.56% DMSO. Fifty microliters of each dilution were then added in triplicate to the plated cells in order to obtain final IX compound concentrations with 0.64% DMSO. Typical testing concentrations ranged from 320 uM to 10 nM. Control wells containing 0.64% DMSO without compound were also included on each plate.
(§3) After 3 days of incubation under humidity at 37° C. with 5% CO2, plates were microscopically examined for compound precipitation and cell death. Tissue culture medium was then aspirated and cells were lysed with 20 ul of 1× Passive Lysis Buffer (Promega, Madison, Wis.). Reporter activity was measured using a MicroBeta Jet 1450 (Perkin Elmer, Boston, Mass.) following sequential 50 ul additions of firefly and Renilla luciferase substrates as described in the manufacturers protocol (Promega). Luciferase activities were expressed as a percentage of the signals observed in the compound-free control wells. The amount of compound required to reduce Renilla luciferase expression by 50% is defined as the 50% effective concentration, or EC50. The amount of compound that reduces firefly luciferase expression by 50% is defined as the 50% cytotoxic concentration, or CC50. A therapeutic index (TI) is calculated by dividing the CC50 by the EC50.

The target of data set [2] is T1, full-length NS3-NS4A enzyme (Hepatitis C virus genotype 1a, UniProt P27958).
T1 construct: 3 nM full-length NS3-NS4A enzyme
T1 sequence (P27958 1027-1657): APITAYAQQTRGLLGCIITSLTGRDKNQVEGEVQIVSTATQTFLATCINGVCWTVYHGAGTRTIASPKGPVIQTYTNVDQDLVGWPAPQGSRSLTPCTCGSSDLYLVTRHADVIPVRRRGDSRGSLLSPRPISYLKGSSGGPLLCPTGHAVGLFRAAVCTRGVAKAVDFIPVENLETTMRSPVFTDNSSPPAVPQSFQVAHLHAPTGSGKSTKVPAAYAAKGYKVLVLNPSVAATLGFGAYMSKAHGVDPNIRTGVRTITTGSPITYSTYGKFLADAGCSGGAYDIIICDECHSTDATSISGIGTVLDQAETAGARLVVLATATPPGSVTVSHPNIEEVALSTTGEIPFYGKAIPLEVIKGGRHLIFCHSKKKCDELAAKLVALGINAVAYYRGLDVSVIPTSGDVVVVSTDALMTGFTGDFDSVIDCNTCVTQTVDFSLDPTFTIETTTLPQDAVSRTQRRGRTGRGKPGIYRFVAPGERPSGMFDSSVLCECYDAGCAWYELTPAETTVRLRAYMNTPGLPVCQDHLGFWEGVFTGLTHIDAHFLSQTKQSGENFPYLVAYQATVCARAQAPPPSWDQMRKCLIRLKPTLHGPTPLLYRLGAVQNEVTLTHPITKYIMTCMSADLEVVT
T1 sequence (P27958 1658-1711): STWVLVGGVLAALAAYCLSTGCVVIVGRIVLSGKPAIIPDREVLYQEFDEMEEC
The data set can be described thus: HCV protease assay (continuous FRET, full-length enzyme). Type of data set: biochemical. The following applies: 3 nM full-length NS3-NS4A, 3 uM depsipeptide FRET substrate S1; competitive inhibition fit. On the procedure:
HCV protease activity and compound inhibition was monitored using a continuous, fluorescence resonance energy transfer (FRET) assay. Test compounds at various concentrations were added to assay buffer (50 mM MOPS pH 7.5, 50 mM NaCl, 20% glycerol, 0.025% Triton-X 100, 1 mM tris(2-carboxyethyl)phosphine) containing 3 uM depsipeptide FRET substrate S1 (Anaspec) (see Taliani et al. Analytical Biochemistry, 240, 60-67 (1996)) in a white, non-binding 96-well plate (Corning). The reaction was started by the addition of 3 nM full-length NS3-NS4A enzyme. The increase in fluorescence intensity following peptide cleavage was monitored using a Safire fluorescence plate reader (Tecan). The excitation and emission wavelengths were 340 nm and 500 nm, respectively. Inhibition constants (KI) were calculated by non-linear regression analysis using an equation derived for competitive inhibition.

A further data set can be described thus: in vitro. Type of data set: cell-based. To be noted: human; 50% reduction of firefly luciferase expression, 3 days incubation; read-out: Replicon CC50. On the procedure: as §1, §2, §3

Usually EC50 stands for the concentration that produces a half-maximal response. A word on the Ki: it is the dissociation constant of the complex between target and ligand, obtained from inhibition or displacement. Low readings indicate tighter binding, high ones weaker binding. One may read the CC50 as the concentration at which the toxic effect on the cells reaches its halfway point. In the case of `O=C(N[C@H]1CCCCC/C=C\[C@@H]2C[C@@]2(C(=O)O)NC(=O)[C@@H]2C[C@@H](Oc3cc(-c4ccccn4)nc4ccsc34)CN2C1=O)OC1CCCC1` [Example 11, (2R,12Z,13aS,14aR,16aS)-6-{[(cyclopentyloxy)carbonyl]amino}-5,16-dioxo-2-[(5-pyridin-2-ylthieno[3,2-b]pyridin-7-yl)oxy]-1,2,3,6,7,8,9,10,11,13a,14,15,16,16a-tetradecahydrocyclopropa[e]pyrrolo[1,2-a][1,4]diazacyclopentadecine-14a(5H)-carboxylic acid], the EC50 in data set [1] stood at 0.11 µM. In data set [2], this compound displayed a Ki of 0.0066 µM. Moreover, the CC50 at 3 days in the data set “in vitro” amounted to 86 µM.

On to `O=C(N[C@H]1CCCCC/C=C\[C@@H]2C[C@@]2(C(=O)O)NC(=O)[C@@H]2C[C@@H](Oc3cc(-c4ccccn4)nc4ccsc34)CN2C1=O)OC1CCC1` [Example 13, (2R,6S,12Z,13aS,14aR,16aS)-6-{[(Cyclobutyloxy)carbonyl]amino}-5,16-dioxo-2-[(5-pyridin-2-ylthieno[3,2-b]pyridin-7-yl)oxy]-1,2,3,6,7,8,9,10,11,13a,14,15,16,16a-tetradecahydrocyclopropa[e]pyrrolo[1,2-a][1,4]diazacyclopentadecine-14a(5H)-carboxylic acid], for which the EC50 in data set [1] is 0.31 µM. The compound further returned a Ki in data set [2] of 0.009 µM. For the same compound, the cytotoxic concentration (CC50) at 3 days in the data set “in vitro” was found to be 161 µM.

`CC(C)(C)OC(=O)N[C@H]1CCCCC/C=C\[C@@H]2C[C@@]2(C(=O)O)NC(=O)[C@@H]2C[C@@H](Oc3cc(-c4ccccn4)nc4ccsc34)CN2C1=O` [Example 14, (2R,6S,12Z,13aS,14aR,16aS)-6-[(Tert-butoxycarbonyl)amino]-5,16-dioxo-2-[(5-pyridin-2-ylthieno[3,2-b]pyridin-7-yl)oxy]-1,2,3,6,7,8,9,10,11,13a,14,15,16,16a-tetradecahydrocyclopropa[e]pyrrolo[1,2-a][1,4]diazacyclopentadecine-14a(5H)-carboxylic acid]: the midpoint of the response in data set [1], the EC50, lay at 0.61 µM. The compound also gave a Ki in data set [2] of 0.0089 µM. For the same compound, the half-maximal cytotoxic concentration (CC50) at 3 days in “in vitro” was determined as 92 µM.

In data set [1], `O=C(CC1CC1)N[C@H]1CCCCC/C=C\[C@@H]2C[C@@]2(C(=O)O)NC(=O)[C@@H]2C[C@@H](Oc3cc(-c4ccccn4)nc4ccsc34)CN2C1=O` [Example 16, (2R,6S,12Z,13aS,14aR,16aS)-6-[(Cyclopropylacetyl)amino]-5,16-dioxo-2-[(5-pyridin-2-ylthieno[3,2-b]pyridin-7-yl)oxy]-1,2,3,6,7,8,9,10,11,13a,14,15,16,16a-tetradecahydrocyclopropa[e]pyrrolo[1,2-a][1,4]diazacyclopentadecine-14a(5H)-carboxylic acid] came in with an EC50 of 0.14 µM. This compound also returned a Ki in data set [2] of 0.011 µM. In the data set “in vitro”, the CC50 at 3 days was found to be 251 µM.

Regarding `O=C(N[C@H]1CCCCC/C=C\[C@@H]2C[C@@]2(C(=O)O)NC(=O)[C@@H]2C[C@@H](Oc3nc(-c4ccccn4)nc4sccc34)CN2C1=O)OC1CCCC1` [Example 26, (2R,6S,12Z,13aS,14aR,16aS)-6-{[(Cyclopentyloxy)carbonyl]amino}-5,16-dioxo-2-[(2-pyridin-2-ylthieno[2,3-d]pyrimidin-4-yl)oxy]-1,2,3,6,7,8,9,10,11,13a,14,15,16,16a-tetradecahydrocyclopropa[e]pyrrolo[1,2-a][1,4]diazacyclopentadecine-14a(5H)-carboxylic acid], the midpoint of the response in data set [1], the EC50, lay at 0.1 µM. Also, in data set [2], the inhibition constant Ki was 0.0085 µM. Moreover, the CC50 at 3 days in the data set “in vitro” was 117 µM.

In data set [1], `O=C(N[C@H]1CCCCC/C=C\[C@@H]2C[C@@]2(C(=O)O)NC(=O)[C@@H]2C[C@@H](Oc3nc(-c4ccccn4)nc4sccc34)CN2C1=O)OC1CCC1` [Example 28, (2R,6S,12Z,13aS,14aR,16aS)-6-{[(cyclobutyloxy)carbonyl]amino}-5,16-dioxo-2-[(2-pyridin-2-ylthieno[2,3-d]pyrimidin-4-yl)oxy]-1,2,3,6,7,8,9,10,11,13a,14,15,16,16a-tetradecahydrocyclopropa[e]pyrrolo[1,2-a][1,4]diazacyclopentadecine-14a(5H)-carboxylic acid] returned an EC50 of 0.42 µM. Besides, the Ki in data set [2] came to 0.021 µM. The CC50 at 3 days in “in vitro” was 59 µM.
